Experimental data from PubChem BioAssay (NCI).
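In this assay, cells in 96-well plates receive the compound at five concentrations for 48 hours. Endpoints are linearly interpolated between the surrounding concentrations. GI50 marks 50% less growth. TGI denotes the concentration required for complete inhibition of growth.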

Columns and labels:
Assay in all cases: DTP human tumour cell line panel, 48 h; in the data active = GI50 below about 0.43 µM; inactive = the rest
M14 melanoma = tested on: M14 melanoma
U251 CNS = tested on: U251 CNS
HS 578T breast = tested on: HS 578T breast
OVCAR-4 ovarian = tested on: OVCAR-4 ovarian
MDA-MB-231 breast = tested on: MDA-MB-231 breast
UACC-62 melanoma = tested on: UACC-62 melanoma
UACC-257 melanoma = tested on: UACC-257 melanoma
SK-MEL-5 melanoma = tested on: SK-MEL-5 melanoma
NCI/ADR-RES ovarian = tested on: NCI/ADR-RES ovarian
RPMI-8226 leukemia = tested on: RPMI-8226 leukemia
ACHN renal = tested on: ACHN renal
EKVX NSCLC = tested on: EKVX NSCLC
CAKI-1 renal = tested on: CAKI-1 renal
HOP-62 NSCLC = tested on: HOP-62 NSCLC
K-562 leukemia = tested on: K-562 leukemia
NCI-H522 lung = tested on: NCI-H522 lung
CCRF-CEM leukemia = tested on: CCRF-CEM leukemia
HCC-2998 colon = tested on: HCC-2998 colon
SK-MEL-28 melanoma = tested on: SK-MEL-28 melanoma
UO-31 renal = tested on: UO-31 renal
IGROV1 ovarian = tested on: IGROV1 ovarian
SW-620 colon = tested on: SW-620 colon
NCI-H460 lung = tested on: NCI-H460 lung
SNB-19 CNS = tested on: SNB-19 CNS
DU-145 prostate = tested on: DU-145 prostate
RXF 393 renal = tested on: RXF 393 renal
A498 renal = tested on: A498 renal
TK-10 renal = tested on: TK-10 renal
BT-549 breast = tested on: BT-549 breast
HOP-92 NSCLC = tested on: HOP-92 NSCLC
SF-539 CNS = tested on: SF-539 CNS
MCF7 breast = tested on: MCF7 breast
LOX IMVI melanoma = tested on: LOX IMVI melanoma
HCT-116 colon = tested on: HCT-116 colon
SN12C renal = tested on: SN12C renal
HL-60(TB) leukemia = tested on: HL-60(TB) leukemia
786-0 renal = tested on: 786-0 renal
OVCAR-5 ovarian = tested on: OVCAR-5 ovarian
HT29 colon = tested on: HT29 colon
MOLT-4 leukemia = tested on: MOLT-4 leukemia
NCI-H226 lung = tested on: NCI-H226 lung
NCI-H23 lung = tested on: NCI-H23 lung
OVCAR-8 ovarian = tested on: OVCAR-8 ovarian
SK-MEL-2 melanoma = tested on: SK-MEL-2 melanoma
KM12 colon = tested on: KM12 colon
COLO 205 colon = tested on: COLO 205 colon
MALME-3M melanoma = tested on: MALME-3M melanoma
T-47D breast = tested on: T-47D breast
SF-295 CNS = tested on: SF-295 CNS
SK-OV-3 ovarian = tested on: SK-OV-3 ovarian
SR leukemia = tested on: SR leukemia
PC-3 prostate = tested on: PC-3 prostate
OVCAR-3 ovarian = tested on: OVCAR-3 ovarian
HCT-15 colon = tested on: HCT-15 colon
A549 NSCLC = tested on: A549 NSCLC
SF-268 CNS = tested on: SF-268 CNS
MDA-MB-435 = tested on: MDA-MB-435
SNB-75 CNS = tested on: SNB-75 CNS

CCN1C(=O)N(CC)C2C1NC(=S)N2/N=C/C=C/c1cccs1 (configuration not stated)
1.17 µM: TGI (COLO 205 colon)
5.93 µM: TGI (SK-MEL-5 melanoma)
0.666 µM: TGI (SF-539 CNS)
1.69 µM: TGI (NCI-H522 lung)
active: GI50 (M14 melanoma) 0.241 µM | GI50 (U251 CNS) 0.342 µM | GI50 (HS 578T breast) 0.281 µM | GI50 (SK-MEL-5 melanoma) 0.274 µM | GI50 (NCI/ADR-RES ovarian) 0.296 µM | GI50 (RPMI-8226 leukemia) 0.413 µM | GI50 (CAKI-1 renal) 0.248 µM | GI50 (HOP-62 NSCLC) 0.414 µM | GI50 (K-562 leukemia) 0.263 µM | GI50 (NCI-H522 lung) 0.214 µM | GI50 (CCRF-CEM leukemia) 0.396 µM | GI50 (SW-620 colon) 0.355 µM | GI50 (NCI-H460 lung) 0.363 µM | GI50 (DU-145 prostate) 0.341 µM | GI50 (RXF 393 renal) 0.182 µM | GI50 (A498 renal) 0.0855 µM | GI50 (SF-539 CNS) 0.226 µM | GI50 (MCF7 breast) 0.26 µM | GI50 (HCT-116 colon) 0.404 µM | GI50 (HL-60(TB) leukemia) 0.281 µM | GI50 (HT29 colon) 0.352 µM | GI50 (KM12 colon) 0.312 µM | GI50 (COLO 205 colon) 0.267 µM | GI50 (SF-295 CNS) 0.258 µM | GI50 (SK-OV-3 ovarian) 0.339 µM | GI50 (SR leukemia) 0.217 µM | GI50 (PC-3 prostate) 0.344 µM | GI50 (OVCAR-3 ovarian) 0.241 µM | GI50 (HCT-15 colon) 0.307 µM
0.857 µM: TGI (HL-60(TB) leukemia)
> 100 µM: TGI (U251 CNS) | TGI (OVCAR-4 ovarian) | TGI (MDA-MB-231 breast) | TGI (UACC-62 melanoma) | TGI (UACC-257 melanoma) | TGI (NCI/ADR-RES ovarian) | TGI (ACHN renal) | TGI (EKVX NSCLC) | TGI (CAKI-1 renal) | TGI (HOP-62 NSCLC) | TGI (K-562 leukemia) | TGI (CCRF-CEM leukemia) | TGI (HCC-2998 colon) | TGI (SK-MEL-28 melanoma) | TGI (UO-31 renal) | TGI (IGROV1 ovarian) | TGI (SW-620 colon) | TGI (NCI-H460 lung) | TGI (SNB-19 CNS) | TGI (DU-145 prostate) | TGI (RXF 393 renal) | TGI (TK-10 renal) | TGI (HOP-92 NSCLC) | TGI (MCF7 breast) | TGI (LOX IMVI melanoma) | TGI (HCT-116 colon) | TGI (SN12C renal) | TGI (786-0 renal) | TGI (OVCAR-5 ovarian) | TGI (HT29 colon) | TGI (MOLT-4 leukemia) | TGI (NCI-H23 lung) | TGI (OVCAR-8 ovarian) | TGI (SK-MEL-2 melanoma) | TGI (KM12 colon) | TGI (MALME-3M melanoma) | TGI (T-47D breast) | TGI (SF-295 CNS) | TGI (SK-OV-3 ovarian) | TGI (PC-3 prostate) | TGI (HCT-15 colon) | TGI (A549 NSCLC) | TGI (SF-268 CNS)
> 28.3 µM: TGI (NCI-H226 lung)
inactive: GI50 (OVCAR-4 ovarian) 1.32 µM | GI50 (MDA-MB-231 breast) 0.648 µM | GI50 (UACC-62 melanoma) 0.45 µM | GI50 (ACHN renal) 0.804 µM | GI50 (EKVX NSCLC) 0.464 µM | GI50 (HCC-2998 colon) 0.709 µM | GI50 (UO-31 renal) 0.923 µM | GI50 (IGROV1 ovarian) 0.569 µM | GI50 (SNB-19 CNS) 0.508 µM | GI50 (TK-10 renal) > 47.5 µM | GI50 (BT-549 breast) 1.2 µM | GI50 (HOP-92 NSCLC) 13.4 µM | GI50 (LOX IMVI melanoma) 0.55 µM | GI50 (SN12C renal) 0.62 µM | GI50 (786-0 renal) 0.615 µM | GI50 (OVCAR-5 ovarian) 0.544 µM | GI50 (MOLT-4 leukemia) 0.62 µM | GI50 (NCI-H226 lung) 2.06 µM | GI50 (NCI-H23 lung) 0.658 µM | GI50 (OVCAR-8 ovarian) 0.548 µM | GI50 (SK-MEL-2 melanoma) 0.529 µM | GI50 (MALME-3M melanoma) 0.485 µM | GI50 (T-47D breast) 0.428 µM | GI50 (A549 NSCLC) 0.508 µM | GI50 (SF-268 CNS) 1.47 µM
9.09 µM: TGI (BT-549 breast)
0.539 µM: TGI (A498 renal)
0.715 µM: TGI (OVCAR-3 ovarian)
17.6 µM: TGI (M14 melanoma)
> 38.9 µM: TGI (RPMI-8226 leukemia) | TGI (SR leukemia)

COc1ccc2c(c1)CC[C@@H]1[C@@H]2CC[C@]2(C)C(=O)/C(=C/c3ccc(OC)c(OC)c3)C[C@@H]12
> 100 µM: TGI (M14 melanoma) | TGI (U251 CNS) | TGI (OVCAR-4 ovarian) | TGI (MDA-MB-231 breast) | TGI (UACC-62 melanoma) | TGI (SK-MEL-5 melanoma) | TGI (NCI/ADR-RES ovarian) | TGI (RPMI-8226 leukemia) | TGI (ACHN renal) | TGI (EKVX NSCLC) | TGI (CAKI-1 renal) | TGI (HOP-62 NSCLC) | TGI (HCC-2998 colon) | TGI (UO-31 renal) | TGI (SW-620 colon) | TGI (NCI-H460 lung) | TGI (SNB-19 CNS) | TGI (MDA-MB-435) | TGI (DU-145 prostate) | TGI (RXF 393 renal) | TGI (A498 renal) | TGI (TK-10 renal) | TGI (BT-549 breast) | TGI (HOP-92 NSCLC) | TGI (SF-539 CNS) | TGI (MCF7 breast) | TGI (HCT-116 colon) | TGI (HL-60(TB) leukemia) | TGI (786-0 renal) | TGI (OVCAR-5 ovarian) | TGI (MOLT-4 leukemia) | TGI (NCI-H23 lung) | TGI (SK-MEL-2 melanoma) | TGI (KM12 colon) | TGI (MALME-3M melanoma) | TGI (SF-295 CNS) | TGI (SK-OV-3 ovarian) | TGI (SNB-75 CNS) | TGI (SR leukemia) | TGI (PC-3 prostate) | TGI (OVCAR-3 ovarian) | TGI (HCT-15 colon) | TGI (A549 NSCLC)
